# Reference: patent publication US20250368648A1, “MULTI-CYCLIC IRAK AND FLT3 INHIBITING COMPOUNDS AND USES THEREOF” (CHILDREN'S HOSPITAL MEDICAL CENTER, priority 2022, published 2025)
# Tests used:
# [1] = target: T1, FLT3 D835Y (Homo sapiens, UniProt P36888, D835Y); test: DiscoverX KINOMEscan competition binding, FLT3 D835Y; conditions: no ATP
# T1 construct: purchased DiscoverX (KINOMEscan); host or cells: E. coli (T7 phage) or HEK-293
# T1 sequence (P36888 27-993 D835Y): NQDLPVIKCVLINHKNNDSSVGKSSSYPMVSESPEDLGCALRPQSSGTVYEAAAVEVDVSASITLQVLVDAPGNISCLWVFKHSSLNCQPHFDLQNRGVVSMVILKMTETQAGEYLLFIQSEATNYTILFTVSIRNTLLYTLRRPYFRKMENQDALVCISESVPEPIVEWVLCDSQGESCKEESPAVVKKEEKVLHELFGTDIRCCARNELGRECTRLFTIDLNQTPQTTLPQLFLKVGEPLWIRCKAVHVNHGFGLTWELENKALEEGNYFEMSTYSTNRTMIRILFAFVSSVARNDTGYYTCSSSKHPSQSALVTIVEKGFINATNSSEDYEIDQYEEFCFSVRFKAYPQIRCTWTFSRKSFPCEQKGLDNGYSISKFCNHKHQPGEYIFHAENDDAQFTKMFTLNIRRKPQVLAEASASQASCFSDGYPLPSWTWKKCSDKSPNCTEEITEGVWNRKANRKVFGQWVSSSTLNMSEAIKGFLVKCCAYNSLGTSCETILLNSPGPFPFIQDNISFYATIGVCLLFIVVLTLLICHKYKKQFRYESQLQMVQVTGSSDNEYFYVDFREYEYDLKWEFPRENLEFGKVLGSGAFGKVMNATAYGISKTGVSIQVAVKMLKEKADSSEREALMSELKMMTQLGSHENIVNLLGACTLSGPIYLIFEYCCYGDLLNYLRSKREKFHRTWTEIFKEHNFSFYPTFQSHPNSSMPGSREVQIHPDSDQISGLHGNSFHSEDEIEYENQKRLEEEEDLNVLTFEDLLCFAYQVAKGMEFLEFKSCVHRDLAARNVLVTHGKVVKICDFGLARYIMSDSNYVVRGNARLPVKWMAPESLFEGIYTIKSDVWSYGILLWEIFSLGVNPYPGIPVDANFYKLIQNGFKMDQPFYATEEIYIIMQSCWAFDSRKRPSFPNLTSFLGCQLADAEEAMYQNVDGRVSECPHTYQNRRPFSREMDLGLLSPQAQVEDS
# Excerpt: (§1) Kinase binding data were obtained for various exemplary compounds prepared according to Examples 2-15 using the DiscoverX KINOMEscan® active site-directed competition binding site-directed assay protocol described below. […] As a result, the data report thermodynamic interaction affinities (Kd values), rather than IC50 values that are dependent on ATP concentrations. The assay uses a DNA-tagged version of the protein kinase, and an immobilized ligand bound to a solid support. Compounds that directly or indirectly prevent kinase binding to the immobilized ligand reduce the amount of kinase captured on the solid support, which is detected using an ultra-sensitive qPCR method. Affinity constants reported from the assay have been reported to be independent of the immobilized ligand used that is coupled to the solid support (See supplemental information in Fabian, M. A. et. al., (2005) Nat. […] Wodicka, L. […] Biol. 17, 1241-1249.) Kinase-tagged T7 phage strains were prepared in an E. coli host derived from the BL21 strain. E. coli were grown to log-phase and infected with T7 phage and incubated with shaking at 32° C. until lysis. […] Kds were determined using an 11-point 3-fold compound dilution series with three DMSO control points. […] The kinase concentration in the eluates was measured by qPCR. Binding constants (Kds) were calculated with a standard dose-response curve using the Hill equation. […]
# [2] = target: T2, FLT3 ITD, D835V (Homo sapiens, UniProt P36888, D835V, form not given); test: DiscoverX KINOMEscan competition binding, FLT3 ITD, D835V; conditions: no ATP
# T2 construct: fused on or other part: DNA tag for qPCR read-out (T7 phage fusion, or DNA-tagged kinase made in HEK-293 cells)
# T2 sequence (P36888 1-993 D835V): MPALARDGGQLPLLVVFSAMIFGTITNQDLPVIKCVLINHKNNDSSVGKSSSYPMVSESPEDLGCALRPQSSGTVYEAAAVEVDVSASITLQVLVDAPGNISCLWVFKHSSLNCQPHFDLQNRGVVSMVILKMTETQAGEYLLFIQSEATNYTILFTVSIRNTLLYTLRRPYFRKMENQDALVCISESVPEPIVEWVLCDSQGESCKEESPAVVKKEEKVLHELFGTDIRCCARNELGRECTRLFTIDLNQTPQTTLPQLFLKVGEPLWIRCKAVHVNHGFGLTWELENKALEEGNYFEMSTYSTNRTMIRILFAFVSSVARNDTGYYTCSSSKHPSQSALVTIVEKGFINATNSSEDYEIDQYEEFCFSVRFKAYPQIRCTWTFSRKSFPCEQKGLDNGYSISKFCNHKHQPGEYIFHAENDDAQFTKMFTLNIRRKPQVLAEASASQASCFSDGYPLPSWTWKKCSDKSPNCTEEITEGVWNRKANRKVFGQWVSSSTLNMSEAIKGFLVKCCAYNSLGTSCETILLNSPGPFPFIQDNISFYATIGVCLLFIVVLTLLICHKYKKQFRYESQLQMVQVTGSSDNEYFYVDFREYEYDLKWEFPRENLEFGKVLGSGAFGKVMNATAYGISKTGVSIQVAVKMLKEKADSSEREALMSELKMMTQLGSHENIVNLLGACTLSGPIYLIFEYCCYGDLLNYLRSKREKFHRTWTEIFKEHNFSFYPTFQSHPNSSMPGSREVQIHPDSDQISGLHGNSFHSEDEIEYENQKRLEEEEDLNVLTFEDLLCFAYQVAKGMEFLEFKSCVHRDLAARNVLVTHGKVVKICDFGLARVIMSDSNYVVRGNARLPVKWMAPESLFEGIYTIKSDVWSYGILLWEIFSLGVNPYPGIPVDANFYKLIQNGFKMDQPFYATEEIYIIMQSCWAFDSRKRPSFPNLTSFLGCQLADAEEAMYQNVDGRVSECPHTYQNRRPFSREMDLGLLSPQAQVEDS
# Excerpt: as §1
structure (smiles),measurement,setting,value
"COc1cc2ncc(-c3nc(N[C@H]4CNCC[C@@H]4F)c(F)cc3F)n2nc1C1CCC1 [Compound 15a, 6-(6-cyclobutyl-7-methoxyimidazo[1,2-b]pyridazin-3-yl)-3,5-difluoro-N-((3S,4S)-4-fluoropiperidin-3-yl)pyridin-2-amine]",Kd,[1],< 0.17 nM
same,Kd,[2],< 0.17 nM
